For two compounds, IC50 results are on record in BindingDB's records for patent US11691989 (Ascentage Pharma (Suzhou), 2023).

The experiment has as its target T1, Induced myeloid leukemia cell differentiation protein Mcl-1 [171-323] (Homo sapiens, UniProt Q07820).
T1 construct: 171-323
In words: Inhibition of Mcl-1 by fluorescence polarization (FP) assay. The method, then:
The relative binding potency of representative Compounds of the Disclosure was determined by a fluorescence polarization (FP) assay. The method used a fluorescein labelled peptide (FAM-Bid) which binds to the Mcl-1 protein leading to an increased anisotropy measured in milli-polarization (mP) values using a plate reader. […] A 10-points serial dilution of each compound was prepared in DMSO and 5 μL solution was transferred into flat bottomed, 96-well back plate (final DMSO concentration […]). 120 μL of Buffer (PBS, 0.01% BGG (Sigma Cat. #SRE0011), 0.01% Triton X-100), containing the Fluorescein labelled peptide (Final concentration 2 nM) and Mcl-1 protein (final concentration 20 nM) was then added. […] 10-points dose response curves were plotted with GraphPad software using Sigmoidal Dose-Response Model and the IC50 values were determined by nonlinear regression fitting of the competition curves.
For orientation: Polarisation of emitted light reports the rotation of a fluorescent probe.

T1 sequence (Q07820 171-323): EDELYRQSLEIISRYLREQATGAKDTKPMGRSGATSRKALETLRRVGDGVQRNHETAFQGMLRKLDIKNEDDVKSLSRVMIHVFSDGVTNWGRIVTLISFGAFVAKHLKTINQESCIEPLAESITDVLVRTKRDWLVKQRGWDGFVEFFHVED

`Cc1c2c(nn1C)CSCc1cc(n(C)n1)CSc1cc(c3ccc(F)cc3c1)OCCCn1c(C(=O)O)cc3c-2c(Cl)ccc31` [US11691989, Compound 13]: half-maximal inhibition (IC50) required 19 nM.
`Cc1c(C(=O)O)n2c3ccc(Cl)c(c13)-c1c(nn(C)c1C)CSCc1cc(n(C(C)C)n1)CSc1cc(c3ccc(F)cc3c1)OCCC2` [US11691989, Compound 17]: inhibition was half-maximal at 15 nM (IC50).
